Publication PMC9794608 (Frontiers in Veterinary Science, 2022)

Key:
[1] = Pilot single oral dose plasma trametinib concentrations (initial formulation); format: in vivo; conditions: fasted dogs
Procedure: (§1) Each 50 μL aliquot of known concentration standards, quality control sample, or study sample was mixed with 200 μL of working internal standard solution (10 ng/mL in acetonitrile). The samples were vortexed and centrifuged. A 150 μL aliquot of the resulting supernatant was transferred to a clean 96-well plate, evaporated, and reconstituted with 100 μL of water/acetonitrile (40/60, v/v). An aliquot was injected onto an LC-MS/MS XBridge BEH C18 liquid chromatography system (Waters Associates, Framingham, MA) having 50 x 2.1 mm (2.5 μm particle size) column with an isocratic flow consisting of water/formic acid (100/0.1, v/v) and acetonitrile/formic acid (100/0.1, v/v) at a flow rate of 0.3000 mL/min for analysis. The analyte and internal standard were detected using an API 6500+ triple quadrupole LC-MS/MS system (AB Sciex, LLC, Framingham, MA) equipped with an ESI (TurboIonSpray®) ionization source operated in the positive ion mode.
These analytical findings, even under animal fasting conditions, were independently verified at the NCI Clinical Pharmacology Program. […] Consequently, trametinib was reformulated for this study by […] with equimolar dimethyl sulfoxide (DMSO) (Wedgewood Pharmacy, Swedesboro, NJ), consistent with the human formulation ([…]®, Novartis), and used for all subsequent evaluations. […]

[2] = Plasma pharmacokinetics after single and repeat oral dose, LC-MS/MS, non-compartmental analysis; format: in vivo, Beagle dogs; conditions: for Tmax: TMAX (trametinib in plasma), median (range)
Procedure: (§2) Laboratory Beagle dogs (Charles River Labs, Mattawan, MI) served as surrogates in testing compounds proposed for application in canine clinical cancer care. The animals were at least six months old and weighed 6.4–8.8 kg at the initiation of study. They had routine veterinary care and had not been used in any previous studies. The study was conducted in AAALAC-accredited animal facilities [Charles River Laboratories, Inc., Mattawan, MI; NIH Office of Laboratory Animal Welfare Assurance approval (https://olaw.nih.gov/assured/app/index.html)], under review, monitoring, and approval of the facility's Institutional Animal Care and Use Committee according to U.S. Public Health Service national guidelines and regulations for the care and use of laboratory animals. The study was not designed to incorporate Good Laboratory Practices (GLP) regulatory criteria. Animals on study were monitored daily or more frequently and body weights were recorded, while periodic specimens were obtained for laboratory analyses. Clinical pathology analyses were included for hematology, serum chemistry, coagulation, urinalysis, and chemical bioanalysis was accomplished for pharmacokinetics (PK) (Table 1, repeat dose study) (Charles River Laboratories, Mattawan, MI).
Six male and six female beagle dogs were enrolled in a parallel, three-arm, fixed, repeat oral-dose study. […] In Group 2, two male (23001, 23002) and two female (23501, 23502) dogs were given sapanisertib alone (0.1 mg/kg) every other day (p.o., QOD). […] All dogs were dosed on study day 1 to obtain single dose PK samples, and then dosed serially days 4–20. Dogs were fasted overnight prior to dosing and fed ad libitum 2 h (hrs) following dose administration.
Plasma samples for PK were collected at pre-dose (-7 days), then beginning day 1 following the initial dose of each study group at 1, 2, 4, 8, 24, 48, and 72 h. On day 6, plasma samples were collected pre-dose, then 1, 2, 4, 8, and 24 h post-dose. On days 10 and 15, a 2-h post-dose sample was collected. On day 20, plasma samples were drawn at pre-dose and 1, 2, 4, 8, 24, 48, and 72 h post-dose. Treatment schedule and clinical pathology specimen sampling intervals are outlined in Table 1.
as §1
A non-compartmental approach to PK analysis was employed using Phoenix WinNonlin v8.3 (Certara Corp, Cary, NC) that was validated per FDA 21CFR Part 11 regulations. The maximum plasma concentration (CMAX) and the time of maximum plasma concentration (TMAX) were recorded as observed values. […] AUCINF (the AUC from time zero to infinity) was calculated by extrapolation by dividing CLAST (the last measurable drug concentration) by the rate constant of the terminal phase, λZ. This constant was determined from the slope of the terminal phase of the concentration-time curve using uniformly-weighted least-squares as the estimation procedure and acceptance criteria of (i) adjusted r^2 > 0.8, (ii) includes > 3 time points in the terminal phase occurring after the TMAX. […]

laboratory beagle dogs = test: Repeat dose tolerability: clinical observations, hematology, serum chemistry, coagulation, urinalysis; format: in vivo
Procedure: as §2
Six male and six female beagle dogs were enrolled in a parallel, three-arm, fixed, repeat oral-dose study. […] All dogs were dosed on study day 1 to obtain single dose PK samples, and then dosed serially days 4–20. Dogs were fasted overnight prior to dosing and fed ad libitum 2 h (hrs) following dose administration.
On days 10 and 15, a 2-h post-dose sample was collected. […] Treatment schedule and clinical pathology specimen sampling intervals are outlined in Table 1. […]
Sampling for hematology, serum chemistry, coagulation and urinalysis was conducted to facilitate monitoring treatment effects over various time points, and values obtained were compared to pre-treatment measurements for each subject (Table 1).

[3] = cited from earlier work
cytochrome P450 CYP3A4 = conditions: cited from earlier work
[4] = design: method as in PMID 32943547; conditions: combination with sapanisertib, p <0.001; cited from earlier work
[5] = ref MEKINIST Prescribing Information

Row | Plasma trametinib concentration after single oral dose ([1]; 0.06 or 0.03 mg/kg, inconsistent, frequently below assay detection limit, for each dose one of two dogs below detection) [ng/mL] | Time to detection of trametinib in plasma post dose ([1]; single oral dose 0.06 or 0.03 mg/kg) [h] | CMAX or AUC, male versus female dogs ([2]; Mann-Whitney, p > 0.05) | Cmax ([2]; both, beagle, dog, plasma, po, […], CMAX (trametinib in plasma), First dose (Day 1), trametinib […] p.o., alone or with sapanisertib 0.1 mg/kg (see label), arithmetic mean (%CV), n = 4) [ng/mL] | half-life ([2]; both, beagle, dog, plasma, po, […], T1/2 (trametinib in plasma), Steady-state (Day 20), trametinib […] p.o. q.d., mean (%CV), one subject of the trametinib-alone group excluded) [h] | Tmax ([2]; both, beagle, dog, plasma, po, […], First dose (Day 1), trametinib […] p.o., n = 4) [h] | Tmax ([2]; both, beagle, dog, plasma, po, […], Steady-state (Day 20), trametinib […] p.o. q.d., n = 4) [h] | Compound | Dogs with minimal to marked increases in urine protein concentration (laboratory beagle dogs; Day 25, greater than pre-study values, 4 dogs per group) | Urine protein concentration, highest value (up to) (laboratory beagle dogs; Day 25, semi-quantitatively by urine dipstick) | Globulin concentration, times pre-study (up to) (laboratory beagle dogs; Days 7, 20, and/or 25) | Serum phosphorus concentrations, times pre-study (as low as) (laboratory beagle dogs; Days 7 and 20, both sexes in all groups) [x] | Individual animal fibrinogen concentration, times pretreatment (up to) (laboratory beagle dogs; various time points, most pronounced in Group 3) | Trametinib accumulation upon repeat daily dosing in humans [3] | Clearance of trametinib in humans [3, 5] [mL/min/kg] | Distribution volume of trametinib in humans [3, 5] [L/kg] | Induction of cytochrome P450 CYP3A4 (cytochrome P450 CYP3A4) | Trametinib AUC in mice during combination treatment [4]
1 | < 0.1 | ≥ 24 |  |  |  |  |  | CC(=O)Nc1cccc(-n2c(=O)n(C3CC3)c(=O)c3c(Nc4ccc(I)cc4F)n(C)c(=O)c(C)c32)c1 [trametinib, as initially formulated, trametinib] |  |  |  |  |  |  |  |  |  | 
2 |  |  | absence of significant differences | 0.64 | 58.8 | 1.5 | 2 | CC(=O)Nc1cccc(-n2c(=O)n(C3CC3)c(=O)c3c(Nc4ccc(I)cc4F)n(C)c(=O)c(C)c32)c1 [Trametinib, trametinib dimethyl sulfoxide] | one male dog | ≥ 1,000 mg/dL | up to 1.45 x | ≥ 0.74 | up to 2.61 x | up to six-fold | 1.2 | 3.1 | known inducer | significantly increased
